From patent US7247317B2, “Compositions comprising phenylaminothiophenacetic acid derivatives for the treatment of acute or adult respiratory distress syndrome (ARDS) and infant respiratory distress syndrome (IRDS)” (Altana Pharma AG, priority 1998, dated 2007)

Test system: Sprague Dawley rats
Test: Lung lavage model of ARDS in ventilated rats: arterial oxygen partial pressure (PaO2)
Format: in vivo, rat
Details: for PaO2: 120 min, mean ± SD
Description: Anesthetized Sprague Dawley rats are artificially ventilated with pure oxygen and a positive endexiratory pressure (PEEP; in order to ensure oxygenation of the rats) and lavaged until their endogenous lung surfactant is washed out [D. Häfner, R. Beume, U. Kilian, G. Kraznai and Burkhard Lachmann: Dose-response comparison of five lung surfactant (LSF) preparations in an animal model of adult respiratory distress syndrome (ARDS); D. Häfner, P.-G. Germann, D. Hauschke, Pulmonary Pharmacology (1994) 7, 319-332]. This is manifested by the fact that in the animals the preliminary values of the arterial oxygen partial pressure (PaO2) of 500-550 mmHg (in the case of pure oxygen ventilation and PEEP) decrease to values of 50-110 mmHg. Animals of the control group which are not treated with lung surfactant remain with their PaO2 at these low values throughout the observation period. 60 minutes after the PaO2 has decreased to these values, lung surfactant or lung surfactant together with 4-(2,6-dichloroanilino)-3-thiopheneacetic acid is instilled intratracheally. The blood gases are determined 30, 60, 90 and 120 minutes after instillation.
In Table 1 below, in line A the average values (± standard deviation) of the PaO2 are indicated in mmHg for the time 120 minutes (constant PEEP of 8 cm H2O) after intratracheal instillation of lung surfactant 1 h after the last lavage. The table contains data about the values after a sole i.v. administration of 4-(2,6-dichloroanilino)-3-thiopheneacetic acid (Eltenac) in comparison to untreated controls. It can be seen from the table that the sole administration of Eltenac has no influence on the PaO2. This follows by comparison with the untreated control animals. The administration of lung surfactant (25 or 100 mg/kg) leads to a rise in the PaO2. […] In Table 2, in line A the PaO2 values after joint intratracheal (i.tr.) administration of lung surfactant together with Eltenac are indicated in increasing dosages. […]

**Q.** Which results are given for `O=C(O)Cc1cscc1Nc1c(Cl)cccc1Cl` [Eltenac, 4-(2,6-dichloroanilino)-3-thiopheneacetic acid]?
**A.** PaO2 (Eltenac i.tr. 3.0 mg/kg alone after last lavage): 92 ± 69 mmHg; PaO2 (Eltenac i.v. 22.1 mg/kg alone, directly after lavage, PEEP 8 cm H2O): 82 ± 35 mmHg; influence on the PaO2 (in words) (sole administration of Eltenac vs untreated control animals): no influence
